# Measurements taken from US4069035A, “1-(2-Carboxyaryl)-3-aryl-1,2,4-triazoles and use as herbicides” (E. I. Du Pont de Nemours and Company, priority 1976, dated 1978).
# Experiments:
# [1] = pKa by titration against aqueous NaOH (half neutralization point), buffer range; assay type: physicochemical; settings: for pKa: dimethylsulfoxide/water, 0.09995N NaOH, half neutralization point; for Buffer Range: range 1 acid:10 salt to 10 acid:1 salt
# Protocol: The selected acids listed in Table IX (65-84 mg samples, weighed accurately) were respectively dissolved in a mixture of dimethylsulfoxide (25 ml) and water (10-25 ml) and titrated against 0.09995N aqueous sodium hydroxide using an automatic titrimeter (Metrohm Potentiograph Model E 336). According to the general theory of buffer solutions (A. I. Vogel, "A Textbook of Quantitative Inorganic Analysis, Theory and Practice," Longmans, Green, London (1948)), the following relationship exists in a dilute solution (0.05-0.2M) of a weak acid to which small additions of acid or base are made
# pH = pKa + log [Salt]/[Acid]
# The pH of the solution is mainly determined by the pKa of the acid, and in general the buffering capacity (ability to withstand pH change upon addition of acid or base) is maintained within the range 1 acid:10 salt to 10 acid:1 salt, a hundred-fold variation of concentration, or a change of two pH units. The buffer ranges of each of the acids is shown in the third column of Table IX. The acids are useful as buffers in weakly acidic solutions.
# corn [2] = test: preemergence plant growth test; assay type: in vivo; settings: 2k/ha
# Source text: (§1) The imidazole and triazole compounds of the invention are useful as plant growth modifiers when applied to plants. The compounds are applied to the immediate area where the plant is developing and growing, including preemergence and postemergence application.
# morning glory [3] = test: preemergence plant growth test; assay type: in vivo; settings: 2k/ha
# Source text: as §1
# cassia [4] = test: preemergence plant growth test; assay type: in vivo; settings: 2k/ha
# Source text: as §1
# rice [5] = test: preemergence plant growth test; assay type: in vivo; settings: 2k/ha
# Source text: as §1
# wheat [6] = test: preemergence plant growth test; assay type: in vivo; settings: 2k/ha
# Source text: as §1
# wild oats [7] = test: preemergence plant growth test; assay type: in vivo; settings: 2k/ha
# Source text: as §1
# nutsedge [8] = test: preemergence plant growth test; assay type: in vivo; settings: 2k/ha
# Source text: as §1
# barnyard grass [9] = test: preemergence plant growth test; assay type: in vivo; settings: 2k/ha
# Source text: as §1
# cocklebur [10] = test: preemergence plant growth test; assay type: in vivo; settings: 2k/ha
# Source text: as §1
# crabgrass = test: preemergence plant growth test; assay type: in vivo; settings: 2k/ha
# Source text: as §1
# soybeans [11] = test: preemergence plant growth test; assay type: in vivo; settings: 2k/ha; for epinastic response: soybeans
# Source text: as §1
# corn [12] = test: postemergence plant growth test; assay type: in vivo; settings: 2k/ha
# Source text: as §1
# morning glory [13] = test: postemergence plant growth test; assay type: in vivo; settings: 2k/ha
# Source text: as §1
# cassia [14] = test: postemergence plant growth test; assay type: in vivo; settings: 2k/ha
# Source text: as §1
# rice [15] = test: postemergence plant growth test; assay type: in vivo; settings: 2k/ha
# Source text: as §1
# wheat [16] = test: postemergence plant growth test; assay type: in vivo; settings: 2k/ha
# Source text: as §1
# wild oats [17] = test: postemergence plant growth test; assay type: in vivo; settings: 2k/ha
# Source text: as §1
# nutsedge [18] = test: postemergence plant growth test; assay type: in vivo; settings: 2k/ha
# Source text: as §1
# bush beans = test: postemergence plant growth test; assay type: in vivo; settings: 2k/ha
# Source text: as §1
# cocklebur [19] = test: postemergence plant growth test; assay type: in vivo; settings: 2k/ha
# Source text: as §1
# sorghum [20] = test: postemergence plant growth test; assay type: in vivo; settings: 2k/ha
# Source text: as §1
# soybeans [21] = test: postemergence plant growth test; assay type: in vivo; settings: 2k/ha
# Source text: as §1
# sorghum [22] = test: preemergence plant growth test; assay type: in vivo; settings: 2k/ha
# Source text: as §1
# cotton = test: postemergence plant growth test; assay type: in vivo; settings: 2k/ha
# Source text: as §1
# barnyard grass [23] = test: postemergence plant growth test; assay type: in vivo; settings: 2k/ha
# Source text: as §1
SMILES,pKa [1],Buffer Range [1],epinastic response (corn [2]),epinastic response (cassia [4]),epinastic response (rice [5]),epinastic response (wheat [6]),epinastic response (soybeans [11]),epinastic response (corn [12]),epinastic response (morning glory [13]),epinastic response (cassia [14]),epinastic response (rice [15]),epinastic response (bush beans),epinastic response (cocklebur [19]),epinastic response (sorghum [20]),epinastic response (soybeans [21]),epinastic response (wild oats [7]),epinastic response (sorghum [22]),epinastic response (cotton),axillary stimulation (soybeans [21]),epinastic response (nutsedge [8]),also measured
"O=C(O)c1ccccc1-n1cnc(-c2ccccc2)c1 [Example 1, 1-(2-carboxyphenyl)-4-phenylimidazole]",4.91,3.9 - 5.9 pH Units,very strong hormonal effect (epinastic response),very strong hormonal effect (epinastic response),very strong hormonal effect (epinastic response),very strong hormonal effect (epinastic response),very strong hormonal effect (epinastic response),epinastic response,epinastic response,epinastic response,epinastic response,epinastic response,epinastic response,epinastic response,epinastic response,–,–,–,–,–,epinastic response (morning glory [3]): very strong hormonal effect (epinastic response); emergence (wild oats [7]): inhibited; emergence (nutsedge [8]): inhibited; epinastic response (barnyard grass [9]): very strong hormonal effect (epinastic response); epinastic response (cocklebur [10]): very strong hormonal effect (epinastic response); emergence (crabgrass): inhibited; emergence (soybeans [11]; soybean): inhibited; epinastic response (wheat [16]): epinastic response; epinastic response (wild oats [17]): epinastic response; growth (nutsedge [18]): retarded
"O=C(O)c1ccccc1-n1cnc(-c2ccc(Cl)cc2)c1 [Example 2, 1-(2-carboxyphenyl)-4-(4-chlorophenyl)imidazole]",–,–,very strong epinastic responses,–,very strong epinastic responses,very strong response,very strong epinastic responses,epinastic response,epinastic response,–,–,epinastic response,–,epinastic response,–,very strong response,very strong response,epinastic response,strong axillary stimulation,–,epinastic response (crabgrass): very strong epinastic responses
"COc1ccc(-c2cn(-c3ccccc3C(=O)O)cn2)cc1 [Example 3, 1-(2-carboxyphenyl)-4-(4-methoxyphenyl)imidazole]",5.08,4.1 - 6.1 pH Units,–,–,–,–,–,epinastic response,–,epinastic response,epinastic response,epinastic response,epinastic response,epinastic response,epinastic response,–,–,epinastic response,axillary stimulation,–,axillary stimulation (cassia [14]): axillary stimulation; axillary stimulation (barnyard grass [23]): axillary stimulation
"Cc1ccc(-c2cn(-c3ccccc3C(=O)O)cn2)cc1 [Example 4, 1-(2-carboxyphenyl)-4-(4-methylphenyl)imidazole]",5.59,4.6 - 6.6 pH Units,very strong epinastic responses,–,very strong epinastic responses,moderate to strong response,very strong epinastic responses,epinastic response,epinastic response,–,–,epinastic response,–,epinastic response,–,moderate to strong response,moderate to strong response,epinastic response,strong axillary stimulation,–,epinastic response (crabgrass): very strong epinastic responses
"O=C(O)c1ccccc1-n1cnc(-c2ccccc2)n1 [Example 5, 1-(2-carboxyphenyl)-3-phenyl-1,2,4-triazole]",5.91,4.9 - 6.9 pH Units,–,–,–,–,–,–,–,–,epinastic response,–,–,epinastic response,epinastic response,–,–,–,–,–,growth (wheat [16]): retarded; growth (wild oats [17]): retarded; epinastic response (nutsedge [18]): epinastic response; growth (barnyard grass [23]): retarded
"O=C(O)c1ccccc1-n1cnc(-c2ccc(Cl)cc2)n1 [Example 6, 1-(2-carboxyphenyl)-3-(4-chlorophenyl)-1,2,4-triazole]",5.48,4.5 - 6.5 pH Units,epinastic responses,epinastic responses,epinastic responses,epinastic responses,–,–,–,–,–,–,–,–,–,epinastic responses,epinastic responses,–,–,epinastic responses,–
"O=C(O)c1ccccc1-n1cnc(-c2ccc(Cl)c(Cl)c2)n1 [Example 7, 1-(2-carboxyphenyl)-3-(3,4-dichlorophenyl)-,2,4-triazole]",6.19,5.2 - 7.2 pH Units,epinastic responses,epinastic responses,epinastic responses,epinastic responses,–,–,–,–,–,–,–,–,–,epinastic responses,epinastic responses,–,–,epinastic responses,–
"COc1ccc(-c2ncn(-c3ccccc3C(=O)O)n2)cc1 [Example 8, 1-(2-carboxyphenyl)-3-(4-methoxyphenyl)-1,2,4-triazole]",4.73,3.7 - 5.7 pH Units,epinastic responses,epinastic responses,epinastic responses,epinastic responses,–,–,–,–,–,–,–,–,–,epinastic responses,epinastic responses,–,–,epinastic responses,–
"Cc1ccc(-c2ncn(-c3ccccc3C(=O)O)n2)cc1 [Example 9, 1-(2-carboxyphenyl)-3-(4-methylphenyl)-1,2,4-triazole]",4.81,3.8 - 5.8 pH Units,–,epinastic response,epinastic response,–,–,–,epinastic response,epinastic response,epinastic response,–,epinastic response,epinastic response,–,–,epinastic response,–,–,epinastic response,epinastic response (morning glory [3]): epinastic response; epinastic response (cocklebur [10]): epinastic response; epinastic response (nutsedge [18]): epinastic response; growth (bush beans): retarded
